Results from patent publication US9981916B2 (Genentech, Inc., priority 2013, dated 2018).
pIC50: −log10 of the molar value.

Target: T1, RORc ligand binding domain (Homo sapiens, UniProt P51449)
T1 construct: host or cells: E. coli
T1 sequence (P51449 269-508 limits assumed): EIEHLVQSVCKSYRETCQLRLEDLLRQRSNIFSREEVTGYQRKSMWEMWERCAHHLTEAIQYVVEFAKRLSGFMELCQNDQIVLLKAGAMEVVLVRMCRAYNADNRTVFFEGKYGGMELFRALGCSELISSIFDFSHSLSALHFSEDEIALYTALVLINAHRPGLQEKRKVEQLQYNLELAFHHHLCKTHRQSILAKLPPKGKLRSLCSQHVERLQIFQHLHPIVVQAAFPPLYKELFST
Assay: In vitro RORc ligand binding assay (25-[3H]hydroxycholesterol displacement, filter binding)
Conditions: 6 nM 25-[3H]hydroxycholesterol, 0.6 ug/mL RORc receptor, 3 h at 25° C.
Method in brief: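 Filter-binding displacement of 6 nM 25-[3H]hydroxycholesterol from RORc receptor (0.6 ug/mL) in 50 mM HEPES pH 7.4, 150 mM NaCl, 5 mM MgCl2, 1 mM DTT, 0.01% BSA, 5% DMSO; 3 h at 25° C. NSB defined with 1 uM 25-hydroxycholesterol; scintillation counting gave Kiapp, IC50 or % inhibition (screening at 1 and 10 uM).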

Row | pIC50 | SMILES
1 | 5.68 | CC(=O)N[C@@]12CC[C@@H](c3cc(-c4ccccc4F)nnc31)C2(C)C [Example 81, N-[(5R,8R)-3-(2-fluorophenyl)-9,9-dimethyl-6,7-dihydro-5,8-methanocinnolin-8(5H)-yl]acetamide]
2 | 6.69 | Cc1nc([C@@]23CC[C@@H](c4cc(-c5c(F)cccc5F)nnc42)C3(C)C)co1 [Example 192, 4-((5R,8S)-3-(2,6-difluorophenyl)-9,9-dimethyl-5,6,7,8-tetrahydro-5,8-methanocinnolin-8-yl)-2-methyloxazole]
3 | 7.01 | CC1(C)[C@@H]2CC[C@@]1(C(=O)N1CC(O)C1)c1nnc(-c3c(F)cccc3F)cc12 [Example 86, [(5S,8S)-3-(2,6-difluorophenyl)-9,9-dimethyl-6,7-dihydro-5,8-methanocinnolin-8(5H)-yl](3-hydroxyazetidin-1-yl)methanone]
4 | 5.62 | CC1(C)[C@H]2CC[C@]1(C(=O)NC1COC1)c1nnc(-c3c(F)cccc3F)cc12 [Example 187, (5R,8R)-3-(2,6-difluorophenyl)-9,9-dimethyl-N-(oxetan-3-yl)-5,6,7,8-tetrahydro-5,8-methanocinnoline-8-carboxamide]
5 | 6.63 | CC1(C)[C@H]2CC[C@]1(CN(CCC#N)C(=O)CO)c1nnc(-c3c(F)cccc3F)cc12 [Example 316, N-(2-cyanoethyl)-N-(((5R,8S)-3-(2,6-difluorophenyl)-9,9-dimethyl-5,6,7,8-tetrahydro-5,8-methanocinnolin-8-yl)methyl)-2-hydroxyacetamide]
6 | 7.38 | CCNC(=O)N(CC(F)F)C[C@@]12CC[C@@H](c3cc(-c4c(F)cccc4F)nnc31)C2(C)C [Example 293, 1-(2,2-difluoroethyl)-1-(((5R,8S)-3-(2,6-difluorophenyl)-9,9-dimethyl-5,6,7,8-tetrahydro-5,8-methanocinnolin-8-yl)methyl)-3-ethylurea]
7 | 5.98 | CC1(C)[C@H]2CC[C@]1(Cc1noc(O)n1)c1nnc(-c3c(F)cccc3F)cc12 [Example 58, 3-{[(5R,8R)-3-(2,6-difluorophenyl)-9,9-dimethyl-6,7-dihydro-5,8-methanocinnolin-8(5H)-yl]methyl}-1,2,4-oxadiazol-5-ol]
8 | 6.06 | CC1(C)[C@@H]2CC[C@@]1(N1CCOC1=O)c1nnc(-c3c(F)cccc3F)cc12 [Example 254, 3-((5S,8S)-3-(2,6-difluorophenyl)-9,9-dimethyl-5,6,7,8-tetrahydro-5,8-methanocinnolin-8-yl)oxazolidin-2-one]
9 | 7.27 | COCCN(C[C@@]12CC[C@@H](c3cc(-c4c(F)cccc4F)nnc31)C2(C)C)c1nnc(C)o1 [Example 149, N-(((5R,8S)-3-(2,6-difluorophenyl)-9,9-dimethyl-5,6,7,8-tetrahydro-5,8-methanocinnolin-8-yl)methyl)-N-(2-methoxyethyl)-5-methyl-1,3,4-oxadiazol-2-amine]
10 | 7.72 | CCN(C[C@@]12CC[C@@H](c3cc(-c4c(F)cccc4F)nnc31)C2(C)C)C(C)=O [Example 157, N-(((5R,8S)-3-(2,6-difluorophenyl)-9,9-dimethyl-5,6,7,8-tetrahydro-5,8-methanocinnolin-8-yl)methyl)-N-ethylacetamide]
11 | 5.76 | Cc1nc(C[C@]23CC[C@H](c4cc(-c5ccccc5F)nnc42)C3(C)C)no1 [Example 39, (5S,8S)-3-(2-fluorophenyl)-9,9-dimethyl-8-[(5-methyl-1,2,4-oxadiazol-3-yl)methyl]-5,6,7,8-tetrahydro-5,8-methanocinnoline]
12 | 6.21 | Cn1ncnc1[C@@]12CC[C@@H](c3cc(-c4c(F)cccc4F)nnc31)C2(C)C [Example 251, (5R,8R)-3-(2,6-difluorophenyl)-9,9-dimethyl-8-(1-methyl-1H-1,2,4-triazol-5-yl)-5,6,7,8-tetrahydro-5,8-methanocinnoline]
13 | 6.44 | CC1(C)[C@@H]2CC[C@@]1(Cn1cccn1)c1nnc(-c3ccccc3F)cc12 [Example 27, (5S,8R)-3-(2-fluorophenyl)-9,9-dimethyl-8-(1H-pyrazol-1-ylmethyl)-5,6,7,8-tetrahydro-5,8-methanocinnoline]
14 | 6.18 | C=C1C[C@@H]2c3cc(-c4ccccc4F)nnc3[C@@]1(C)C2(C)C [Example 51, (5S,8R)-3-(2-fluorophenyl)-8,9,9-trimethyl-7-methylidene-5,6,7,8-tetrahydro-5,8-methanocinnoline]
15 | 6.22 | CC1(C)[C@H]2CC[C@]1(C)c1nnc(Oc3ccccc3F)cc12 [Example 98, (5R,8S)-3-(2-fluorophenoxy)-8,9,9-trimethyl-5,6,7,8-tetrahydro-5,8-methanocinnoline]
16 | 7.77 | CCc1nnc([C@@]23CC[C@@H](c4cc(-c5c(F)cccc5F)nnc42)C3(C)C)o1 [Example 122, (5R,8R)-3-(2,6-difluorophenyl)-9,9-dimethyl-8-(5-ethyl-1,3,4-oxadiazol-2-yl)-5,6,7,8-tetrahydro-5,8-methanocinnoline]
17 | 6.51 | CC1(C)[C@@H]2CC[C@@]1(C(=O)N1CC(CC#N)C1)c1nnc(-c3c(F)cccc3F)cc12 [Example 264, 2-(1-((5S,8S)-3-(2,6-difluorophenyl)-9,9-dimethyl-5,6,7,8-tetrahydro-5,8-methanocinnoline-8-carbonyl)azetidin-3-yl)acetonitrile]
18 | 6.03 | CN(C)C(=O)N(C)[C@@]12CC[C@@H](c3cc(-c4c(F)cccc4F)nnc31)C2(C)C [Example 325, 1-((5R,8R)-3-(2,6-difluorophenyl)-9,9-dimethyl-5,6,7,8-tetrahydro-5,8-methanocinnolin-8-yl)-1,3,3-trimethylurea]
19 | 6.70 | CC1(C)[C@H]2CC[C@]1(N1CCCC1=O)c1nnc(-c3c(F)cccc3F)cc12 [Example 109, 1-[(5R,8R)-3-(2,6-difluorophenyl)-9,9-dimethyl-6,7-dihydro-5,8-methanocinnolin-8(5H)-yl]pyrrolidin-2-one]
20 | 5.32 | CC1(C)[C@@H]2CC[C@@]1(CN1CCCC1=O)c1nnc(-c3ccccc3F)cc12 [Example 18, 1-{[(5S,8R)-3-(2-fluorophenyl)-9,9-dimethyl-6,7-dihydro-5,8-methanocinnolin-8(5H)-yl]methyl}pyrrolidin-2-one]
21 | 6.44 | CC1(C)[C@H]2CC[C@]1(CN(CCC#N)C(N)=O)c1nnc(-c3c(F)cccc3F)cc12 [Example 310, 1-(2-cyanoethyl)-1-(((5R,8S)-3-(2,6-difluorophenyl)-9,9-dimethyl-5,6,7,8-tetrahydro-5,8-methanocinnolin-8-yl)methyl)urea]
22 | 6.99 | C[C@@H]1COC(=O)N1C[C@@]12CC[C@@H](c3cc(-c4c(F)cccc4F)nnc31)C2(C)C [Example 294, (R)-3-(((5R,8S)-3-(2,6-difluorophenyl)-9,9-dimethyl-5,6,7,8-tetrahydro-5,8-methanocinnolin-8-yl)methyl)-4-methyloxazolidin-2-one]
23 | 7.96 | CCN(C[C@@]12CC[C@@H](c3cc(-c4c(F)cccc4F)nnc31)C2(C)C)S(=O)(=O)CCC(F)(F)F [Example 345, N-(((5R,8S)-3-(2,6-difluorophenyl)-9,9-dimethyl-5,6,7,8-tetrahydro-5,8-methanocinnolin-8-yl)methyl)-N-ethyl-3,3,3-trifluoropropane-1-sulfonamide]
24 | 6.41 | CC1(C)C2CCC1(C(=O)N1CC(N3CC[C@H](F)C3)C1)c1nnc(-c3c(F)cccc3F)cc12 (stereo in doubt) [Example 248, ((5S,8S)-3-(2,6-difluorophenyl)-9,9-dimethyl-5,6,7,8-tetrahydro-5,8-methanocinnolin-8-yl)(3-((S)-3-fluoropyrrolidin-1-yl)azetidin-1-yl) methanone]
25 | 6.23 | CC1(C)[C@H]2CC[C@]1(CNCCC#N)c1nnc(-c3c(F)cccc3F)cc12 [Example 309, 3-((((5R,8S)-3-(2,6-difluorophenyl)-9,9-dimethyl-5,6,7,8-tetrahydro-5,8-methanocinnolin-8-yl)methyl)amino) propanenitrite]
26 | 6.07 | CC1(C)[C@@H]2CC[C@@]1(C(=O)Nc1ccc(C#N)cn1)c1nnc(-c3ccccc3F)cc12 [Example 128, (5S,8S)-N-(5-cyanopyridin-2-yl)-3-(2-fluorophenyl)-9,9-dimethyl-5,6,7,8-tetrahydro-5,8-methanocinnoline-8-carboxamide]
27 | 7.34 | CCN(C[C@@]12CC[C@@H](c3cc(-c4c(F)cccc4F)nnc31)C2(C)C)S(C)(=O)=O [Example 156, N-(((5R,8S)-3-(2,6-difluorophenyl)-9,9-dimethyl-5,6,7,8-tetrahydro-5,8-methanocinnolin-8-yl)methyl)-N-ethylmethanesulfonamide]
28 | 7.43 | CC[C@]12CC[C@H](c3cc(-c4ccccc4F)nnc31)C2(C)C [Example 35, (5S,8R)-8-ethyl-3-(2-fluorophenyl)-9,9-dimethyl-5,6,7,8-tetrahydro-5,8-methanocinnoline]
29 | 7.30 | CC1(C)[C@H]2CC[C@]1(c1ccno1)c1nnc(-c3c(F)cccc3F)cc12 [Example 194, 5-((5R,8R)-3-(2,6-difluorophenyl)-9,9-dimethyl-5,6,7,8-tetrahydro-5,8-methanocinnolin-8-yl)isoxazole]
30 | 5.55 | Cc1c[nH]nc1C1CN(C(=O)[C@]23CC[C@H](c4cc(-c5ccccc5F)nnc42)C3(C)C)C1 [Example 335, ((5S,8S)-3-(2-fluorophenyl)-9,9-dimethyl-5,6,7,8-tetrahydro-5,8-methanocinnolin-8-yl)(3-(4-methyl-1H-pyrazol-3-yl)azetidin-1-yl)methanone]
